Like-named read-outs stand apart in the source and are kept apart here.
Legend:
[1] = plasma, intravenous administration, cited from earlier work
OCT3 = biological target: T1, OCT3 (Homo sapiens, UniProt O75751); assay: Confocal laser scanning microscopy of ASP+ uptake, HEK-OCT3; assay type: cell-based; conditions: compound 5 15 μM; TPA 200 μM; ASP+ 1 μM
T1 construct: expressed in transfected cells; host or cells: HEK293 (HEK-OCT3)
T1 sequence (O75751 1-556): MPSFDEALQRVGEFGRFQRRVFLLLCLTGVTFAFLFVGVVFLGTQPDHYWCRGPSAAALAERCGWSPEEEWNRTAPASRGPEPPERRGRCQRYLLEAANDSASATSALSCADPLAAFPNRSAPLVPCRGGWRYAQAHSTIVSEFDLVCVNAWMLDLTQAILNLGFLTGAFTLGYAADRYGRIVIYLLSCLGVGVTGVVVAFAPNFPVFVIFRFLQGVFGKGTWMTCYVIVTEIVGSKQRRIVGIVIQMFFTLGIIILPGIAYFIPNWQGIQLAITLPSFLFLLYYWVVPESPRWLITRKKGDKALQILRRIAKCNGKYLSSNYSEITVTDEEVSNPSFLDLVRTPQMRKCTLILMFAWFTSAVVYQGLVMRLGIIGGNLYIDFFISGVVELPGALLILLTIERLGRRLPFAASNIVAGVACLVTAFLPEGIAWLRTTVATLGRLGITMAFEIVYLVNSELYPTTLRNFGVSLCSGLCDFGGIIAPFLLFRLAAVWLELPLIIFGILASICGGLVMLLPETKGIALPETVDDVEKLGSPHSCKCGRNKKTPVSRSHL
Experimental: (§1) HEK-Co, HEK-OCT1 and HEK-OCT3 cells were seeded into 8-well μ-Slides (Ibidi, Munich, Germany) (2 · 10^4 cells/well) and allowed to attach for 48 hours. Prior to the staining procedure, the medium was replaced by PBS and the DNA probe Draq5 (5 μM) (Biostatus, Shepshed, UK) was added to each well. […] Subsequently, ASP^+ was added to reach a concentration of 1 μM, and the cells were incubated for 5 minutes in the dark. Imaging was performed with an Axiovert 200 M confocal microscope coupled to a Zeiss LSM 510 scanning device (Carl Zeiss, Oberkochen, Germany) using a Plan-Apochromat 63x/1.40 oil immersion objective. Draq5 was excited at 633 nm and fluorescence was detected using a 650 nm long-pass filter, ASP^+ was excited at 488 nm and detected using a 565/35 nm band-pass filter.

OCT1 = biological target: T2, OCT1 (Homo sapiens, UniProt O15245); assay: Confocal laser scanning microscopy of ASP+ uptake, HEK-OCT1; assay type: cell-based; conditions: compound 5 15 μM; TPA 200 μM; ASP+ 1 μM
T2 construct: containing the full length SLC22A1 cDNA (NM_003057) encoding the human OCT1 protein; expressed in transfected cells
T2 sequence (O15245 1-554): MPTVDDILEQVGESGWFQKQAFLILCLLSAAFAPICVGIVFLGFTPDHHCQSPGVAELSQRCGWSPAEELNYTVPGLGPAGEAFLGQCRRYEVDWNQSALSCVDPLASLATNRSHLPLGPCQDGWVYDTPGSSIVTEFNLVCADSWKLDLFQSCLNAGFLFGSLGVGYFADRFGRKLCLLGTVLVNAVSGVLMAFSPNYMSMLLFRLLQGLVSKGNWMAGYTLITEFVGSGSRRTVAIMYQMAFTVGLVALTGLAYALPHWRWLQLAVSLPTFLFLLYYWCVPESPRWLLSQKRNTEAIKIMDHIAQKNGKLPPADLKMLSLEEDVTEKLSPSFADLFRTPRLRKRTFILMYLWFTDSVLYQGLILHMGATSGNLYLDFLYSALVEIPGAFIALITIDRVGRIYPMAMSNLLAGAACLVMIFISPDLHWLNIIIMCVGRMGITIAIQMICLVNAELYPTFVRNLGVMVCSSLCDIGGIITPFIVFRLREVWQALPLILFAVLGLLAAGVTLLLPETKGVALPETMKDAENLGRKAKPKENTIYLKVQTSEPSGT
Experimental: as §1

SMILES | Cmax ([1]; converted, ref 51) [µM] | Cmax ([1]; converted, ref 52) [µM] | Cmax ([1]; ref 51) [ng/mL] | Cmax ([1]; ref 52) [ng/mL] | effect on OCT3 activity (ASP+ uptake, imaging) (OCT3) | effect on OCT1 activity (ASP+ uptake, imaging) (OCT1)
Cn1c(CCCC(=O)O)nc2cc(N(CCCl)CCCl)ccc21 [Compound 1, bendamustine, reference compound] | ~17 | ~31 | 6000 | 11000 | – | –
Cn1c(CCCC(=O)OCCN2CCCC2)nc2cc(N(CCCl)CCCl)ccc21 [Compound 5] | – | – | – | – | inhibited | inhibited

— publication PMC4721923 (PLoS ONE, 2015)
